Laboratory results: patent publication US20150094474A1, “AGRICULTURAL CHEMICALS” (Redx Pharma Ltd., priority 2012, published 2015)

What was measured:
Format in all cases: in vivo
Details in all cases: 20% concentration
[1] = system: bedbugs, Cimex lectularius; assay: Insect repellent bioassay, bedbugs (treated tile arena)
Method: (§1) A laboratory bioassay was conducted to screen 5 compounds (Icaridin (38); and 4 icaridin analogues: 39, 40a, 42a and 41) for repellent activity against houseflies, Musca domestica, black ants, Lasius niger, German cockroaches, Blattella germanica, and bedbugs, Cimex lectularius. Compounds were diluted in a mixture of ethanol and water and assessed at a 20% concentration. A mixture of ethanol/water only negative control was also included for comparative purposes. These were applied onto an aluminium foil tile, which was placed into one half of an arena. The other half of the arena contained an untreated aluminium foil tile. The number of insects present in the treated and untreated area was assessed every 5 minutes for a total of 20 minutes.
Bedbugs, Cimex lectularius, were obtained from a laboratory culture maintained at CimexStore (Chepstow, UK). Mixed age and sex adult bedbugs were used in the experiments (see deviation below).
(§2) Temperature was maintained between 24.2 and 24.6° C. and relative humidity ranged between 27.5% and 43.5%, throughout the experimental period.
(§3) The tested compounds were diluted in ethanol and water to a concentration of 20% (w/w: compound 20%, ethanol 40%, water 40%). The concentrates were prepared at room temperature and stirred for approximately 15 minutes using a vortex mixer. A negative control (mixture of ethanol:water 50:50) was also included in the testing for comparative purposes. Treatments were applied directly on to a non porous surface (aluminium foil), using a Gilson pipette at a rate of 0.225 ml per 225 cm^2 surface tile. A small piece of acetate was used to evenly spread the treatments across the entire surface of the tile.
(§4) For the testing against ants, cockroaches and bedbugs: A clear plastic container was used measuring approximately 34 cm long×21 cm wide×20 cm high. This was divided into two halves. The treated aluminium foil was placed in one half and the other half contained untreated foil. Food (sugar cube for black ants and bran pellet for cockroaches) and water (damp cotton wool) were placed in each half where appropriate. Twenty ants/cockroaches and ten bedbugs were placed in the centre of the arena. The number of insects in each half was assessed at 5 minute intervals for a total of 20 minutes.
(§5) Three to six replicates were performed for each treatment, for each species.

[2] = system: German cockroaches, Blattella germanica; assay: Insect repellent bioassay, German cockroaches (treated tile arena)
Method: as §1
(§6) Houseflies, Musca domestica, and German cockroaches, Blattella germanica, were obtained from a laboratory culture maintained at i2LResearch. Mixed sex and age adult insects (flies were aged 3-6 days old) were used in the experiments.
as §2, §3, §4, §5

black ants, Lasius niger = assay: Insect repellent bioassay, black ants (treated tile arena)
Method: as §1
Black ants, Lasius niger, were field collected from the Cardiff area. Mixed age worker ants were used in the experiments.
as §2, §3, §4, §5

[3] = system: houseflies, Musca domestica; assay: Insect repellent bioassay, houseflies (treated tile arena)
Method: as §1, §6, §2, §3
For the testing against houseflies: A clear plastic container was used measuring approximately 34 cm long×21 cm wide×20 cm high, with a piece of netting and lid on top. This was divided into two halves using an additional tile with a small slit measuring approximately 2.5 cm×5 cm cut at a height of […] from the base, so that the insects could freely travel between halves. A treated and untreated tile was placed either side of the dividing panel. Twenty flies were placed in the half with the treated surface. Sugar and water was placed in both halves. The number of insects crossing from the treated area into the untreated area was assessed at 5 minute intervals for a total of 20 minutes.
as §5

SMILES: CCC(C)OC(=O)N1CCCCC1CC=O (centres unmarked) [Compound 39, sec-Butyl 2-(2-oxoethyl)piperidine-1-carboxylate]
- insects on the treated tile ([1]; TIME 5 mins): A (10% or less of the insects were on the treated tile)
- insects on the treated tile ([1]; TIME 20 mins): A (10% or less of the insects were on the treated tile)
- insects on the treated tile ([2]; TIME 5 mins): B (between 11% and 25% were on the treated tile)
- insects on the treated tile ([2]; TIME 10 mins): B (between 11% and 25% were on the treated tile)
- insects on the treated tile ([2]; TIME 15 mins): B (between 11% and 25% were on the treated tile)
- insects on the treated tile ([2]; TIME 20 mins): B (between 11% and 25% were on the treated tile)
- insects on the treated tile (black ants, Lasius niger; TIME 5 mins): B (between 11% and 25% were on the treated tile)
- insects on the treated tile (black ants, Lasius niger; TIME 10 mins): B (between 11% and 25% were on the treated tile)
- insects on the treated tile (black ants, Lasius niger; TIME 15 mins): B (between 11% and 25% were on the treated tile)
- insects on the treated tile (black ants, Lasius niger; TIME 20 mins): B (between 11% and 25% were on the treated tile)
- insects moving towards the treated tile ([3]; TIME 5 mins): B (between 11% and 25% were on the treated tile)
- insects moving towards the treated tile ([3]; TIME 10 mins): C (greater than 25% were on the treated tile)
- insects moving towards the treated tile ([3]; TIME 15 mins): C (greater than 25% were on the treated tile)
- insects moving towards the treated tile ([3]; TIME 20 mins): C (greater than 25% were on the treated tile)
